Test results from patent US11629141B2, “Proteasome inhibitors and uses thereof” (CORNELL UNIVERSITY, priority 2015, dated 2023).
“Also recorded” adds a separate entry of the source. Like-named read-outs stand apart in the source and are kept apart here.

Legend:
[1] = biological target: T1, hu i-20S β5i (Homo sapiens, UniProt P28062); assay: Kinetic analysis, substrate titration of hu i-20S steady state velocities; assay type: biochemical
T1 construct: purchased Boston Biochem Inc
Method: (§1) FIGS. 1A-1E are graphs showing inhibition modality of PKS21004 against human proteasomes. Washout of c-20S from the preincubated c-20S and […] to recover the β5c activity (FIG. 1A). Substrate titration of hu i-20S (FIG. 1B) and c-20S (FIG. 1D) steady state velocities in the presence of PKS21004 at the concentrations indicated next to each curve. Data as in (FIG. 1B) were plotted double reciprocal in (FIG. 1C), and (FIG. 1D) in (FIG. 1E).
(§2) A washout experiment was used to confirm the reversibility of this class of proteasome inhibitors, as expected from their non-covalent chemistry.

[2] = tested on: Pf Gametocytes; assay: Gametocyte killing assay (DilC1(5), flow cytometry); assay type: cell-based; conditions: Plasmodium falciparum; NF54 peg4-tdTomato, 72 hour incubation; read-out: EC50 against Pf Gametocytes
Method: Asexual replication of NF54 peg4-tdTomato parasites was eliminated by treating with 50 mM GlcNAc and 20 U/mL Heparin for 3 days. NF54 peg4-tdTomato parasites then were maintained using standard culture techniques. Gametocytes were induced synchronously according to Fivelman et al., “Improved Synchronous Production of Plasmodium Falciparum Gametocytes in Vitro,” Mol Biochemo Parasitol. 154(1):119-123 (2007), which is hereby incorporated by reference in its entirety. Asexual replication was eliminated by treating with 50 mM GlcNAc for 3 days. Gametocyte killing assays were setup on days 5 and 10 in triplicate 96-well format at 1% hematocrit and 2% gametocytemia. Compounds were setup in triplicate and serially diluted 3-fold. In addition, 6 solvent controls (DMSO) were distributed evenly across the plate. Following a 72 hour incubation, Stage III-IV (Day 5-7) and Stage IV-V (Day 10-12), (start the incubation in the afternoon on Day 5 and Day 10, take out plate for assay on Day8 and Day13 afternoon) cultures were stained with 16 nM Hoechst 33342 and 50 nM DilC1(5) for 30 min at 37 C. Using a Cytek DxP12 flow cytometer, gametocytemia was determined by gating for DNA+, hemozoin-high cells and gametocyte viability was inferred based on mitochondrial membrane potential-dependent accumulation of DilC1(5) for 2000-3000 gametocytes (Tanaka et al., “Potent Plasmodium Falciparum Gametocytocidal Activity of Diaminonaphthoquinones, Lead Antimalarial Chemotypes Identified in an Antimalarial Compound Screen,” Antimicrob. Agents Chemother. 2015, 59:1389 (2015), which is hereby incorporated by reference in its entirety). Mean DilC1(5) signal was normalized to solvent control and the overall minimum and used to calculate the EC50 (FIG. 3 and Table 4).

[3] = biological target: T2, human immunoproteasome β5i (Homo sapiens, UniProt P28062); assay: IC50 against chymotryptic β5i activity of human immunoproteasome (96-well plate, Ac-ANW-AMC); assay type: biochemical; conditions: β5i; substrate Ac-ANW-AMC; read-out: IC50 Hu i-20S (Ac-ANW-AMC)
T2 construct: purchased Boston Biochem Inc
Method: A 96-well-plate assays were used to determine the IC50s against the chymotryptic β5 activities of the proteasomes. Both human constitutive proteasome and immunoproteasome were purchased from Boston Biochem Inc. 1 μL of 100× compound in DMSO at designated concentrations were spotted at the bottom of the wells. DMSO was used as a control. […] The hydrolysis of the substrate over time in each well was monitored at excitation 360 nm, emission 460 nm for 90 minutes. IC50s were estimated by fitting the velocities of hydrolysis against compound concentrations using PRISM. […] SDS (0.02%) was used as activator, and 0.01% BSA was used in the reaction buffer.

[4] = tested on: Pf20S β5; assay: Labeling of Pf20S active subunits by activity probe MV151 in Pf lysates; assay type: biochemical, P. falciparum; conditions: 1 hour with inhibitor, then MV151 (2 μM) 1 hour
Method: Pf lysates were incubated with inhibitors at indicated concentrations for 1 hour prior to incubation with MV151 (2 μM) for an additional hour. SDS pages were scanned on a Typhoon fluorescent scanner. […] BTZ was used as a positive control.

[5] = biological target: T3, c-20S β5c (Homo sapiens, UniProt P28074); assay: Kinetic analysis, substrate titration of c-20S steady state velocities; assay type: biochemical
T3 construct: purchased Boston Biochem Inc
Method: as §1, §2

[6] = tested on: P. berghei; assay: Killing of P. berghei sporozoite stage in HepG2 cells; assay type: cell-based; conditions: Plasmodium berghei
[7] = biological target: T4, β1c (Homo sapiens, UniProt P28072); assay: Inhibition of β1c activity; assay type: biochemical; conditions: no inhibition <33 μM
T4 construct: purchased Boston Biochem Inc
Method: (§3) The foregoing features of these AsnEDA encouraged a further round of SAR studies (Table 5) based on varying the carboxylic acid at the ethylenediamine, the N-cap at the Asn, and the side chain of the Asn, based on PKS21004. All compounds listed in the Table 5 were synthesized as described in Examples 6-77. All final compounds were confirmed by NMR and HRMS. IC50s of all compounds against β5i and β5c (Table 5), β1i, β2i, β1c and β2c were determined following a reported method (Lin et al., “N,C-Capped Dipeptides With Selectivity for Mycobacterial Proteasome Over Human Proteasomes: Role of S3 and S1Binding Pockets,” J Am Chem Soc. 135:9968-9971 (2013), which is hereby incorporated by reference in its entirety). […] The [1,1′-biphenyl]-3-carboxamide of PKS21004 was then modified with the following substituents: 4′-fluoro (PKS21026), 4′-cyano (PKS21028), 4-fluoro (PKS21196), 4,3′-difluoro (PKS21195) and 4,2′-difluoro (PKS21187).

[8] = tested on: P. falciparum schizonts; assay: Accumulation of poly-ubiquitinated proteins in P. falciparum schizonts; assay type: cell-based; conditions: 4 hours post treatment
[9] = biological target: T5, β2i (Homo sapiens, UniProt P40306); assay: Inhibition of β2i activity; assay type: biochemical; conditions: no inhibition <33 μM
T5 construct: purchased Boston Biochem Inc
Method: as §3

[10] = biological target: T6, β2c (Homo sapiens, UniProt Q99436); assay: Inhibition of β2c activity; assay type: biochemical; conditions: no inhibition <33 μM
T6 construct: purchased Boston Biochem Inc
Method: as §3

[11] = biological target: T7, β1i (Homo sapiens, UniProt P28065); assay: Inhibition of β1i activity; assay type: biochemical; conditions: no inhibition <33 μM
T7 construct: purchased Boston Biochem Inc
Method: as §3

[12] = fit to equation for noncompetitive inhibitors

With CC(C)(C)NC(=O)C[C@H](NC(=O)CCc1ccccc1)C(=O)NCCNC(=O)c1cccc(-c2ccccc2)c1 [PKS21004] the Ki [1] was 0.077 µM, the “α for i-20S (β5i)” value [1, 12] was 0.28 and ≈ 0.28 and the “modality of inhibition of β5i” value ([1]; with respect to substrate) was “noncompetitive inhibitor”. For the same molecule, the EC50 [2] was 0.05 µM, the IC50 [3] was 0.058 µM and the “labeling of Pf20S β5 by MV151” value [4] was “block labeling; also recorded: inhibited the labeling”. For the same molecule, the Ki [5] was 0.55 µM, the “α for c-20S” value [5, 12] was 0.98 and ≈ 0.57 and the “modality of inhibition of β5c” value ([5]; with respect to substrate) was “noncompetitive inhibitor”. For the same molecule, the EC50 ([6]; read-out: EC50 killing of P. berghei, compound & sporozoites incubated with HepG2, media replaced after 14 hours) was 0.021 µM, the EC50 ([6]; compound & sporozoites incubated with HepG2, media replaced after 6 hours, read-out: EC50 killing of P. berghei, 6 hours) was 0.041 µM and the EC50 ([6]; sporozoites pre-treated 30 minutes on ice, added to HepG2, media replaced after 4 hours, read-out: EC50 killing of P. berghei, sporozoites pre-treated (P/T)) was 0.157 µM. The “IC50 against β1c” value [7] was “no inhibition”, the “accumulation of poly-ubiquitinated proteins” value [8] was “accumulation of poly-ubiquitinated proteins” and the “IC50 against β2i” value [9] was “no inhibition”. The “IC50 against β2c” value [10] was “no inhibition” and the “IC50 against β1i” value [11] was “no inhibition”.
